In EP1100483B1, “GLUCOCORTICOID-SELECTIVE ANTI-INFLAMMATORY AGENTS” (Abbott Laboratories, priority 1998, dated 2000):

Target: T1, human progesterone receptor-A [PRA] isoform (Homo sapiens, UniProt P06401)
T1 construct: purchased Ligand Pharmaceuticals (San Diego, CA); host or cells: insect SF21 cells (baculovirus)
T1 sequence (P06401 1-769 isoform P06401-2): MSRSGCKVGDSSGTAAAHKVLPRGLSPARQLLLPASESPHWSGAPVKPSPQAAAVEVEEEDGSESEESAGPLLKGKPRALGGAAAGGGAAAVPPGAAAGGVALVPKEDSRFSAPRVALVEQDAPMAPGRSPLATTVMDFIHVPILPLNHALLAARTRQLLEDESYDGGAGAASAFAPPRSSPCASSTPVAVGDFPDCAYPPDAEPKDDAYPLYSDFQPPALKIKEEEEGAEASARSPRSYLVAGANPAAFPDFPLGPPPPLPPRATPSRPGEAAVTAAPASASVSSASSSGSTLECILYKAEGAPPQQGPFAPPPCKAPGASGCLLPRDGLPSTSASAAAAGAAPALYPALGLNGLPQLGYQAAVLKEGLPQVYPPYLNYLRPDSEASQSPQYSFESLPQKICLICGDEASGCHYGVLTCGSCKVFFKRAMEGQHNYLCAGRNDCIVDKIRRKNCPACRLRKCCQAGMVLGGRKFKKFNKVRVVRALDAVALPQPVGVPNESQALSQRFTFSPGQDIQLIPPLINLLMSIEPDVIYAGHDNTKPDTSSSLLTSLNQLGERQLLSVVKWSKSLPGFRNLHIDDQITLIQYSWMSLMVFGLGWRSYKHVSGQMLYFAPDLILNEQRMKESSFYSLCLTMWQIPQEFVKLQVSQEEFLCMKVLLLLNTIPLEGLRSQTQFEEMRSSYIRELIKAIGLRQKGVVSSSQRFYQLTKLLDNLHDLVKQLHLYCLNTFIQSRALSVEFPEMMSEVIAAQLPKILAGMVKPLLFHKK
Assay: progesterone receptor cytosol (PR) binding assay, [3H]-progesterone competition
Conditions: [3H]Prog ~0.8 nM, 4 °C overnight, Cheng-Prusoff
From the text: For glucocorticoid receptor (OR) cytosol binding assays, the procedure described in Anal. Biochem. 1970, 37, 244-252, hereby incorporated by reference, was used. Briefly, cytosol preparations of human glucocorticoid receptor-α [GRX] isoform and human progesterone receptor-A [PRA] isoform were obtained from Ligand Pharmaceuticals (San Diego, CA). Both receptor cDNAs were cloned into baculovirus expression vectors and expressed in insect SF21 cells. [^3H]-dexamethasone (Dex, specific activity 82-86 Ci/mmole) and [^3H]-progesterone (Prog, specific activity 97-102 Ci/mmol) were purchased from Amersham Life Sciences (Arlington Heights, IL). Glass fiber type C multiscreen MAFC NOB plates were from Millipore ( Burlington, MA). Hydroxyapatide Bio-Gel HTP gel was obtained from Bio-Rad Laboratories (Hercules. CA). Tris(hydroxymethyl)aminomethane (Tris), ethylenediaminetetraacetic acid (EDTA), glycerol, dithiothreitol (DTT) and sodium moylybdate were obtained from Sigma Chemicals (St. Louis, MO). Microscint-20 scintillation fluid was obtained from Packard Instrument (Meriden, CT).
Stock solutions (32 mM) of compounds were prepared in dimethylsulfoxide (DMSO), and 50X solutions of test compounds were prepared from the 32 mM solution with a 50:50 mixture of DMSO/ethanol. The 50X solution was then diluted with binding buffer that contained 10 mM Tri-HCl, 1.5 mM EDTA, 10% glycerol, 1 mM DTT, 20 mM sodium molybdate. pH 7.5 at 4 °C. 1% DMSO/ethanol was also present in the binding assay.
For progesterone receptor cytosol (PR) binding assays, [^3H]Prog (~36,000 dpm (∼0.8 nM)), PRA cytosol (~40 µg protein), test compounds and binding buffer were mixed in a total volume of 200 µL and incubated at 4 °C overnight in a plate shaker. Specific binding was defined as the difference between binding of [^3H]Prog in the absence and in the presence of 3 µM unlabeled Prog.
After an overnight incubation, 50 µL of hydroxyapatite (25 % weight/volume) slurry were added to each well and plates were incubated for 10 min at 4 °C in a plate shaker. Plates were suctioned with a Millipore vacuum manifold and each well was rinsed with 300 µL of ice-cold binding buffer. A 250 µL aliquot of Packard Microscint-20 was added to each well and the wells were shaken at room temperature for 20 minutes. The amount of radioactivity was determined with a Packard TopCount plate reader.
The Ki of test compounds was determined using the Cheng-Prusoff equation Ki =IC50/(1+[L*]/[KL]) where L* is the concentration of radioligand and KL is the dissociation constant of the radioligand determined from saturation analysis. For GRX, KL was ∼1.5 nM, and for PRA, KL was ~4.5 nM.

Q: With `CC(=O)OCCN(C)c1ccc(C(c2ccc(N(C)C)cc2)c2cc([N+](=O)[O-])ccc2Cl)cc1` (stereo not shown) [Example 51, 4'-dimethylamino-4"-(N-methyl-N-(2-acetoxyethyl)amino)-2-chloro-5-nitrotriphenylmethane] as the molecule, how does the Ki read?
A: 1080 nM

Q: For `O=[N+]([O-])c1ccc(Cl)c(C(c2ccc(NCc3ccccc3)cc2)c2ccc(NCc3ccccc3)cc2)c1` [Example 36, 4',4" bis(N-benzylamino)-2-chloro-5-nitrotriphenylmethane], which Ki is on record?
A: 2590 nM

Q: For `CNc1ccc(C(c2ccc(NC)cc2)c2cc([N+](=O)[O-])ccc2Cl)cc1` [Example 23, 4',4" bis(methylamino)-2-chloro-5-nitrotriphenylmethane], which Ki is on record?
A: 624 nM

Q: `CNc1ccc(C(c2ccc(N(C)CCOC(C)=O)cc2)c2cc([N+](=O)[O-])ccc2Cl)cc1` (stereo not shown) [Example 49, 4'-methylamino-4"-(N-(2-acetoxyethyl)-N-methylamino)-2-chloro-5-nitrotriphenylmethane] was tested. Which Ki did it give?
A: 241 nM

Q: How did the Ki turn out when `CN(C)c1ccc(C(Oc2ccccc2)c2cc([N+](=O)[O-])ccc2Cl)cc1` (stereo not shown) [Example 52, phenyl-[(4'-dimethylaminophenyl)-(2-chloro-5-nitrophenyl)methyl] ether] was run?
A: 698 nM

Q: Which Ki does the source give for `CN(C)c1ccc(C(c2ccc(N(C)C)cc2)c2cc(Cl)ccc2Cl)cc1` [Example 24, 4',4" bis(dimethylamino)-2,5-dichlorotriphenylmethane] here?
A: 2590 nM

Q: How did the Ki turn out when `CC(=O)OCCN(C)c1ccc(C(c2ccc(N(C)CCOC(C)=O)cc2)c2cc([N+](=O)[O-])ccc2Cl)cc1` [Example 31, 4',4" bis(N-(2-acetoxyethyl) N-methylamino)-2-chloro-5-nitrotriphenylmethane] was run?
A: 2680 nM

Q: Which Ki does the source give for `CN(C)c1ccc(C(Sc2ccccc2)c2cc([N+](=O)[O-])ccc2Cl)cc1` (stereo not shown) [Example 54, phenyl-[(4'-dimethylaminophenyl)-(2-chloro-5-nitrophenyl)methyl]thioether] here?
A: 2590 nM

Q: For `CN(C)c1ccc(C(c2ccc(N(C)CCO)cc2)c2cc([N+](=O)[O-])ccc2Cl)cc1` (stereo not shown) [Example 42, 4'-dimethylamino-4"-(N-methyl-N-(2-hydroxyethyl)amino)-2-chloro-5-nitrotriphenylmethane], which Ki is on record?
A: 187 nM

Q: With `CN(CCO)c1ccc(C(c2ccc(N(C)CCO)cc2)c2cc([N+](=O)[O-])ccc2Cl)cc1` [Example 32, 4',4" bis(N-(2-hydroxyethyl) N-methylamino)-2-chloro-5-nitrotriphenylmethane] as the molecule, how does the Ki read?
A: 536 nM

Q: Which Ki does the source give for `CNc1ccc(C(c2ccc(NC)cc2)c2cc(Cl)ccc2Cl)cc1` [Example 27, 4',4" bis(methylamino)-2,5-dichlorotriphenylmethane] here?
A: 318 nM

Q: `CN(C)c1ccc(C(c2ccc(N(C)C)cc2)c2cc([N+](=O)[O-])ccc2Cl)cc1` [Example 1, 4',4" bis(dimethylamino)-2-chloro-5-nitrotriphenylmethane] was tested. Which Ki did it give?
A: > 10000 nM

Q: For `CNc1ccc(C(c2ccc(N(C)C)cc2)c2cc([N+](=O)[O-])ccc2Cl)cc1` (stereo not shown) [Example 39, 4'-dimethylamino-4"-methylamino-2-chloro-5-nitrotriphenylmethane], which Ki is on record?
A: 510 nM
